The values that follow come from the supplement of paper PMC10307832.

Common to all, as to assay: relative viability (nuclei count vs DMSO), 5 days (fraction); higher = more cells survive
Compound in the assay “Tanzisertib + Linsitinib”: O[C@H]1CC[C@H](Nc2ncc3nc(Nc4c(F)cc(F)cc4F)n([C@H]4CCOC4)c3n2)CC1 [Tanzisertib] + C[C@]1(O)C[C@@H](c2nc(-c3ccc4ccc(-c5ccccc5)nc4c3)c3c(N)nccn32)C1 [Linsitinib] (partner 1 µM)
In outline: (§1)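 Medians of duplicate plates are given as relative viability. That measure is the nuclei count in treated wells divided by the count in vehicle wells. Counts were taken on 4× images of lung cancer cell lines in 1536-well plates, 5 days after pin-tool dosing the day after seeding with one drug alone or a fixed anchor-drug dose plus five library-drug doses (not always all listed) in √10 steps.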

Compound in assay [1]: C[C@@H](N)c1ccc(C(=O)Nc2ccnc3[nH]ccc23)cc1 + O=C(c1cc(Cc2n[nH]c(=O)c3ccccc23)ccc1F)N1CCN(C(=O)C2CC2)CC1 [Olaparib] (partner 8 µM)
In outline: as §1

Compound in the assay “Tanzisertib + Crizotinib”: O[C@H]1CC[C@H](Nc2ncc3nc(Nc4c(F)cc(F)cc4F)n([C@H]4CCOC4)c3n2)CC1 [Tanzisertib] + C[C@@H](Oc1cc(-c2cnn(C3CCNCC3)c2)cnc1N)c1c(Cl)ccc(F)c1Cl [Crizotinib] (partner 1 µM)
In outline:
as §1

Compound in assay [2]: C1CNCCC1C2=CC(=NN2)C3=CC=NC=C3 + Nc1ncn([C@H]2C[C@H](O)[C@@H](CO)O2)c(=O)n1 [Decitabine] (partner 2 µM)
In outline: as §1

Take 201T: the relative viability with Tanzisertib + Linsitinib (first compound 0.08 µM) amounted to 1.02; in the assay with Tanzisertib + Linsitinib (first compound 0.253 µM) it was 1.01; with Tanzisertib + Linsitinib (first compound 0.8 µM), 0.969; with Tanzisertib + Linsitinib (first compound 2.53 µM), 1.01; with Tanzisertib + Linsitinib (first compound 8 µM) it was 0.956; in assay [1] (first compound 0.04 µM), 0.867. In addition, the relative viability in assay [1] (first compound 0.1265 µM) came out at 0.883; in assay [1] (first compound 0.4 µM), 0.818; in assay [1] (first compound 1.265 µM), 0.895; in assay [1] (first compound 4 µM), 0.949; with Tanzisertib + Crizotinib (first compound 0.08 µM) it was 1.04; with Tanzisertib + Crizotinib (first compound 0.253 µM), 1.04. The relative viability with Tanzisertib + Crizotinib (first compound 0.8 µM) worked out at 1.02; in the assay with Tanzisertib + Crizotinib (first compound 2.53 µM), 1.05; with Tanzisertib + Crizotinib (first compound 8 µM) it was 0.996; in assay [2] (first compound 0.08 µM), 0.835; in assay [2] (first compound 0.8 µM), 0.857; in assay [2] (first compound 2.53 µM) it was 0.846. Also, the relative viability in assay [2] (first compound 8 µM) came out at 0.866.

Take A549: the relative viability worked out at 0.736 with Tanzisertib + Linsitinib (first compound 0.08 µM); 0.551 in the assay with Tanzisertib + Linsitinib (first compound 0.253 µM); 0.703 with Tanzisertib + Linsitinib (first compound 0.8 µM); 0.623 in the assay with Tanzisertib + Linsitinib (first compound 2.53 µM); 0.533 with Tanzisertib + Linsitinib (first compound 8 µM); 0.303 in assay [1] (first compound 0.04 µM). The relative viability is 0.251 in assay [1] (first compound 0.1265 µM); 0.575 in assay [1] (first compound 0.4 µM); 0.0626 in assay [1] (first compound 1.265 µM); 0.465 in assay [1] (first compound 4 µM); 0.852 with Tanzisertib + Crizotinib (first compound 0.08 µM); 0.633 with Tanzisertib + Crizotinib (first compound 0.253 µM). Moreover, the relative viability in the assay with Tanzisertib + Crizotinib (first compound 0.8 µM) is 0.778; with Tanzisertib + Crizotinib (first compound 2.53 µM) it was 0.913; in the assay with Tanzisertib + Crizotinib (first compound 8 µM), 0.714; in assay [2] (first compound 0.08 µM) it was 0.208; in assay [2] (first compound 0.8 µM) it was 0.282; in assay [2] (first compound 2.53 µM), 0.302. Further, the relative viability in assay [2] (first compound 8 µM) is 0.146.

Regarding A-427, the relative viability with Tanzisertib + Linsitinib (first compound 0.08 µM) came out at 1.15; in the assay with Tanzisertib + Linsitinib (first compound 0.253 µM) it was 1.11; with Tanzisertib + Linsitinib (first compound 0.8 µM) it was 1.14; with Tanzisertib + Linsitinib (first compound 2.53 µM) it was 1.07; with Tanzisertib + Linsitinib (first compound 8 µM) it was 1.17; in assay [1] (first compound 0.04 µM) it was 0.698. In addition, the relative viability was 0.817 in assay [1] (first compound 0.1265 µM); 0.762 in assay [1] (first compound 0.4 µM); 0.589 in assay [1] (first compound 1.265 µM); 0.649 in assay [1] (first compound 4 µM); 0.995 with Tanzisertib + Crizotinib (first compound 0.08 µM); 0.85 with Tanzisertib + Crizotinib (first compound 0.253 µM). Also, the relative viability was determined as 0.931 in the assay with Tanzisertib + Crizotinib (first compound 0.8 µM); 0.902 with Tanzisertib + Crizotinib (first compound 2.53 µM); 0.846 in the assay with Tanzisertib + Crizotinib (first compound 8 µM); 0.557 in assay [2] (first compound 0.08 µM); 0.603 in assay [2] (first compound 0.8 µM); 0.578 in assay [2] (first compound 2.53 µM). Further, in assay [2] (first compound 8 µM), the relative viability was 0.498.

Consider ABC-1, for which the relative viability was determined as 0.728 with Tanzisertib + Linsitinib (first compound 0.08 µM); 0.65 with Tanzisertib + Linsitinib (first compound 0.253 µM); 1.07 in the assay with Tanzisertib + Linsitinib (first compound 0.8 µM); 0.977 with Tanzisertib + Linsitinib (first compound 2.53 µM); 0.736 in the assay with Tanzisertib + Linsitinib (first compound 8 µM); 0.511 in assay [1] (first compound 0.04 µM). Besides, the relative viability is 0.752 in assay [1] (first compound 0.1265 µM); 0.942 in assay [1] (first compound 0.4 µM); 0.953 in assay [1] (first compound 1.265 µM); 0.693 in assay [1] (first compound 4 µM); 1.4 in the assay with Tanzisertib + Crizotinib (first compound 0.08 µM); 1.07 in the assay with Tanzisertib + Crizotinib (first compound 0.253 µM). In addition, the relative viability in the assay with Tanzisertib + Crizotinib (first compound 0.8 µM) came out at 1.29; with Tanzisertib + Crizotinib (first compound 2.53 µM) it was 1.26; with Tanzisertib + Crizotinib (first compound 8 µM) it was 1.26; in assay [2] (first compound 0.08 µM), 1.23; in assay [2] (first compound 0.8 µM), 1.02; in assay [2] (first compound 2.53 µM) it was 1.32. Besides, the relative viability in assay [2] (first compound 8 µM) came to 1.08.

Take BEN: the relative viability is 0.875 with Tanzisertib + Linsitinib (first compound 0.08 µM); 0.916 in the assay with Tanzisertib + Linsitinib (first compound 0.253 µM); 1.11 with Tanzisertib + Linsitinib (first compound 0.8 µM); 0.984 with Tanzisertib + Linsitinib (first compound 2.53 µM); 0.904 in the assay with Tanzisertib + Linsitinib (first compound 8 µM); 1.04 in assay [1] (first compound 0.04 µM). The relative viability in assay [1] (first compound 0.1265 µM) came out at 1.08; in assay [1] (first compound 0.4 µM), 1.11; in assay [1] (first compound 1.265 µM) it was 1.27; in assay [1] (first compound 4 µM), 0.542; with Tanzisertib + Crizotinib (first compound 0.08 µM), 0.846; in the assay with Tanzisertib + Crizotinib (first compound 0.253 µM), 0.775. The relative viability with Tanzisertib + Crizotinib (first compound 0.8 µM) is 0.914; in the assay with Tanzisertib + Crizotinib (first compound 2.53 µM), 0.845; in the assay with Tanzisertib + Crizotinib (first compound 8 µM), 0.878; in assay [2] (first compound 0.08 µM) it was 0.676; in assay [2] (first compound 0.8 µM) it was 0.652; in assay [2] (first compound 2.53 µM), 0.779. Further, in assay [2] (first compound 8 µM), the relative viability came out at 0.777.

Regarding CAL-12T, the relative viability with Tanzisertib + Linsitinib (first compound 0.08 µM) was 0.896; in the assay with Tanzisertib + Linsitinib (first compound 0.253 µM), 0.769; in the assay with Tanzisertib + Linsitinib (first compound 0.8 µM) it was 0.882; with Tanzisertib + Linsitinib (first compound 2.53 µM), 0.977; in the assay with Tanzisertib + Linsitinib (first compound 8 µM), 0.817; in assay [1] (first compound 0.04 µM), 0.702. Further, the relative viability is 0.882 in assay [1] (first compound 0.1265 µM); 0.815 in assay [1] (first compound 0.4 µM); 0.841 in assay [1] (first compound 1.265 µM); 0.724 in assay [1] (first compound 4 µM); 0.677 with Tanzisertib + Crizotinib (first compound 0.08 µM); 0.715 in the assay with Tanzisertib + Crizotinib (first compound 0.253 µM). The relative viability with Tanzisertib + Crizotinib (first compound 0.8 µM) stood at 0.684; with Tanzisertib + Crizotinib (first compound 2.53 µM) it was 0.547; with Tanzisertib + Crizotinib (first compound 8 µM), 0.686.

With COR-L23, the relative viability with Tanzisertib + Linsitinib (first compound 0.08 µM) was determined as 1.09; in the assay with Tanzisertib + Linsitinib (first compound 0.253 µM), 0.874; with Tanzisertib + Linsitinib (first compound 0.8 µM) it was 0.896; with Tanzisertib + Linsitinib (first compound 2.53 µM), 1.02; with Tanzisertib + Linsitinib (first compound 8 µM), 0.934; in assay [1] (first compound 0.04 µM), 0.296. Moreover, the relative viability in assay [1] (first compound 0.1265 µM) came to 0.341; in assay [1] (first compound 0.4 µM), 0.322; in assay [1] (first compound 1.265 µM), 0.277; in assay [1] (first compound 4 µM), 0.176; with Tanzisertib + Crizotinib (first compound 0.08 µM), 0.861; with Tanzisertib + Crizotinib (first compound 0.253 µM), 0.669. Further, the relative viability is 0.638 with Tanzisertib + Crizotinib (first compound 0.8 µM); 0.701 with Tanzisertib + Crizotinib (first compound 2.53 µM); 0.709 with Tanzisertib + Crizotinib (first compound 8 µM); 0.424 in assay [2] (first compound 0.08 µM); 0.429 in assay [2] (first compound 0.8 µM); 0.516 in assay [2] (first compound 2.53 µM). In addition, in assay [2] (first compound 8 µM), the relative viability was 0.47.
